Measurements reported in US20140249024A1, “Pesticidal Methods Using Substituted 3-pyridyl Thiazole Compounds and Derivatives for Combating Animal Pests II” (BASF SE, priority 2011, published 2014).

Key:
Type in all cases: in vivo
[1] = test system: Green Peach Aphid (Myzus persicae); assay: Green peach aphid mortality on sprayed bell pepper plants; details: 120 h, spray on infested bell pepper plants, determined after 5 days, read-out: mortality in comparison with untreated controls
Excerpt: The active compounds were formulated in cyclohexanone as a 10,000 ppm solution supplied in tubes. The tubes were inserted into an automated electrostatic sprayer equipped with an atomizing nozzle and they served as stock solutions for which lower dilutions were made in 50% acetone:50% water (v/v). A nonionic surfactant (Kinetic®) was included in the solution at a volume of 0.01% (v/v).
Bell pepper plants at the first true-leaf stage were infested prior to treatment by placing heavily infested leaves from the main colony on top of the treatment plants. Aphids were allowed to transfer overnight to accomplish an infestation of 30-50 aphids per plant and the host leaves were removed. The infested plants were then sprayed by an automated electrostatic plant sprayer equipped with an atomizing spray nozzle. The plants were dried in the sprayer fume hood, removed, and then maintained in a growth room under fluorescent lighting in a 24-hr photoperiod at about 25° C. and about 20-40% relative humidity. Aphid mortality on the treated plants, relative to mortality on untreated control plants, was determined after 5 days.

[2] = test system: Cowpea Aphid (Aphis craccivora); assay: Cowpea aphid test on sprayed potted cowpea plants; details: spray on cowpea plants, population reduction assessed after 24, 72 and 120 hours, read-out: mortality in comparison with untreated controls
Protocol: The active compound was dissolved at the desired concentration in a mixture of 1:1 (vol:vol) distilled water:acetone. The test solution was prepared at the day of use.
Potted cowpea plants colonized with approximately 100-150 aphids of various stages were sprayed after the pest population had been recorded. Population reduction was assessed after 24, 72, and 120 hours.

[3] = test system: Silverleaf Whitefly (bemisia argentifolii); assay: Silverleaf whitefly adult mortality on sprayed cotton plants; details: 72 h, spray on cotton plants, whitefly adults, assessed 3 days after treatment, read-out: mortality in comparison with untreated controls
Excerpt: The active compounds were formulated in cyclohexanone as a 10,000 ppm solution supplied in tubes. The tubes were inserted into an automated electrostatic sprayer equipped with an atomizing nozzle and they serve as stock solutions for which lower dilutions are made in 50% acetone:50% water (v/v). A nonionic surfactant (Kinetic®) was included in the solution at a volume of 0.01% (v/v).
Cotton plants at the cotyledon stage (one plant per pot) were sprayed by an automated electrostatic plant sprayer equipped with an atomizing spray nozzle. The plants were dried in the sprayer fume hood and then removed from the sprayer. Each pot was placed into a plastic cup and about 10 to 12 whitefly adults (approximately 3-5 days old) were introduced. The insects were collected using an aspirator and a nontoxic Tygon® tubing connected to a barrier pipette tip. The tip, containing the collected insects, were then gently inserted into the soil containing the treated plant, allowing insects to crawl out of the tip to reach the foliage for feeding. Cups were covered with a reusable screened lid. Test plants were maintained in a growth room at about 25° C. and about 20-40% relative humidity for 3 days, avoiding direct exposure to fluorescent light (24 hour photoperiod) to prevent trapping of heat inside the cup. Mortality was assessed 3 days after treatment, compared to untreated control plants.

[4] = test system: Cotton Aphid (Aphis gossypii); assay: Cotton aphid mortality on dipped cotton cotyledons; details: 120 h, mortality counts after 5 days, read-out: mortality in comparison with untreated controls
Excerpt: The active compounds were formulated in 50:50 (vol:vol) acetone: water and 100 ppm Kinetica™ surfactant.
Cotton plants at the cotyledon stage (one plant per pot) weare infested by placing a heavily infested leaf from the main colony on top of each cotyledon. The aphids were allowed to transfer to the host plant overnight, and the leaf used to transfer the aphids was removed. The cotyledons were dipped in the test solution and allowed to dry. After 5 days, mortality counts were made.

Measured: mortality at 500 ppm

Clc1nc(-c2cccnc2)sc1-c1ccccn1 [C.4, 4-chloro-5-(2-pyridyl)-2-(3-pyridyl)thiazole]
≥ 75%: [1] | [2] | [3]

FC(F)(F)c1nc(-c2cccnc2)sc1-c1ccn(-c2ncccn2)n1 [C.2, 2-[3-(2-Pyridin-3-yl-4-trifluoromethyl-thiazol-5-yl)-pyrazol-1-yl]-pyrimidine]
≥ 75%: [1] | [4] | [2]
